These results are taken from paper PMC6594919 (Pharmacology Research & Perspectives, 2019).

A short description of data set [1]: Unbound drug concentration in the external medium by ultrafiltration (Centrifree) and immunoassay. Conditions: mean (range).
Data set [2] in a line: In vitro microdialysis with the intravenous EIRUS CVC catheter: drug concentrations in medium and dialysate, relative recovery (RRT, RRU). Conditions: perfusate NaCl 0.9% 5 μL/min, 37°C; for Concentration dialysate: EIRUS catheter 5000 Da cutoff, immunoassay, mean (range).
The mark [3] stands for this setting: Human plasma, immunoassay, triplicate (gentamicin marked **).
The mark [4] stands for this setting: Human serum, immunoassay, triplicate (gentamicin repeated twice).
[5] abbreviates: Medium 5: 0.2 mmol/L phosphate buffer with albumin 40 g/L in NaCl 0.9% pH 6.9, immunoassay, triplicate.

As to `CNC(C)C1CCC(N)C(OC2C(N)CC(N)C(OC3OCC(C)(O)C(NC)C3O)C2O)O1` (stereo not shown) [Gentamicin], the figures for the “Unbound drug concentration medium” value in data set [1] (setting [3]), in data set [1] (setting [4]) and in data set [1] (setting [5]) were 8.9 (7.7‐10.9) mg/L, 7.7 (6.6‐8.9) mg/L and 7.3 (7.2‐7.4) mg/L, respectively. Moreover, the Concentration dialysate was 8.4 (7.1‐9.6) mg/L in data set [2] (Human plasma, triplicate (gentamicin marked **)); 7.1 (5.8‐8.3) mg/L in data set [2] (Human serum, triplicate (gentamicin repeated twice)); 21.5 (21.1‐21.8) mg/L in data set [2] (Medium 3: 0.2 mmol/L phosphate buffer pH 7.4, triplicate); 7.5 (7.4‐7.8) mg/L in data set [2] (Medium 5: 0.2 mmol/L phosphate buffer with albumin 40 g/L in NaCl 0.9% pH 6.9, triplicate).
Take `CN[C@H](CC(C)C)C(=O)N[C@H]1C(=O)N[C@@H](CC(N)=O)C(=O)N[C@H]2C(=O)N[C@H]3C(=O)N[C@H](C(=O)N[C@H](C(=O)O)c4cc(O)cc(O)c4-c4cc3ccc4O)[C@H](O)c3ccc(c(Cl)c3)Oc3cc2cc(c3O[C@@H]2O[C@H](CO)[C@@H](O)[C@H](O)[C@H]2O[C@H]2C[C@](C)(N)[C@H](O)[C@H](C)O2)Oc2ccc(cc2Cl)[C@H]1O` [Vancomycin]: the “Unbound drug concentration medium” value is given as 13.2 (10.0‐14.9) mg/L in data set [1] (setting [3]); 13.2 (13.2‐13.2) mg/L in data set [1] (setting [4]); 6.7 (6.6‐7.4) mg/L in data set [1] (Medium 4: 0.2 mmol/L phosphate buffer with albumin 40 g/L pH 7.1, immunoassay, triplicate); 10.3 (10.3‐10.4) mg/L in data set [1] (setting [5]); 13.3 (13.3‐13.3) mg/L in data set [1] (Medium 6: 0.2 mmol/L phosphate buffer with albumin 40 g/L in NaCl 1.8%, immunoassay, repeated twice). Besides, in data set [2] (EIRUS catheter, t-test: significant difference prior to 60 minutes, none after), the “Time after which a constant (stable) recovery was observed” value was 60 min.
